Experimental data as given in the NIST ThermoML archive (doi:10.1016/j.tca.2015.03.003).

Assay: molar heat capacity at constant pressure; xn = mol fraction of the nth substance listed
Settings: 100 kPa, Small sample (50 mg) DSC

[Cl-].[K+] [potassium chloride] + [Cl-].[Na+]
Settings	molar heat capacity at constant pressure [J/K/mol]
298.15 K, Crystal of unknown type, x1 = 0.1	48.78
298.15 K, Crystal of unknown type, x1 = 0.2	51.33
298.15 K, Crystal of unknown type, x1 = 0.3	49.46
298.15 K, Crystal of unknown type, x1 = 0.4	50.77
298.15 K, Crystal of unknown type, x1 = 0.5	51.13
298.15 K, Crystal of unknown type, x1 = 0.6	48.93
298.15 K, Crystal of unknown type, x1 = 0.7	50.73
298.15 K, Crystal of unknown type, x1 = 0.75	50.05
298.15 K, Crystal of unknown type, x1 = 0.8	50.46
300 K, Crystal of unknown type, x1 = 0.1	48.81
300 K, Crystal of unknown type, x1 = 0.2	51.36
300 K, Crystal of unknown type, x1 = 0.3	49.49
300 K, Crystal of unknown type, x1 = 0.4	50.8
300 K, Crystal of unknown type, x1 = 0.5	51.16
300 K, Crystal of unknown type, x1 = 0.6	48.96
300 K, Crystal of unknown type, x1 = 0.7	50.76
300 K, Crystal of unknown type, x1 = 0.75	50.07
300 K, Crystal of unknown type, x1 = 0.8	50.47
350 K, Crystal of unknown type, x1 = 0.1	49.61
350 K, Crystal of unknown type, x1 = 0.2	52.11
350 K, Crystal of unknown type, x1 = 0.3	50.24
350 K, Crystal of unknown type, x1 = 0.4	51.4
350 K, Crystal of unknown type, x1 = 0.5	51.77
350 K, Crystal of unknown type, x1 = 0.6	49.81
350 K, Crystal of unknown type, x1 = 0.7	51.51
350 K, Crystal of unknown type, x1 = 0.75	50.42
350 K, Crystal of unknown type, x1 = 0.8	50.87
400 K, Crystal of unknown type, x1 = 0.1	50.41
400 K, Crystal of unknown type, x1 = 0.2	52.86
400 K, Crystal of unknown type, x1 = 0.3	50.99
400 K, Crystal of unknown type, x1 = 0.4	52
400 K, Crystal of unknown type, x1 = 0.5	52.39
400 K, Crystal of unknown type, x1 = 0.6	50.66
400 K, Crystal of unknown type, x1 = 0.7	52.26
400 K, Crystal of unknown type, x1 = 0.75	50.77
400 K, Crystal of unknown type, x1 = 0.8	51.27
450 K, Crystal of unknown type, x1 = 0.1	51.21
450 K, Crystal of unknown type, x1 = 0.2	53.61
450 K, Crystal of unknown type, x1 = 0.3	51.74
450 K, Crystal of unknown type, x1 = 0.4	52.6
450 K, Crystal of unknown type, x1 = 0.5	53.01
450 K, Crystal of unknown type, x1 = 0.6	51.51
450 K, Crystal of unknown type, x1 = 0.7	53.01
450 K, Crystal of unknown type, x1 = 0.75	51.12
450 K, Crystal of unknown type, x1 = 0.8	51.67
470 K, Crystal of unknown type, x1 = 0.1	51.53
470 K, Crystal of unknown type, x1 = 0.2	53.91
470 K, Crystal of unknown type, x1 = 0.3	52.04
470 K, Crystal of unknown type, x1 = 0.4	52.84
470 K, Crystal of unknown type, x1 = 0.5	53.25
470 K, Crystal of unknown type, x1 = 0.6	51.85
470 K, Crystal of unknown type, x1 = 0.7	53.31
470 K, Crystal of unknown type, x1 = 0.75	51.26
470 K, Crystal of unknown type, x1 = 0.8	51.83
500 K, Crystal of unknown type, x1 = 0.1	52.01
500 K, Crystal of unknown type, x1 = 0.2	54.36
500 K, Crystal of unknown type, x1 = 0.3	52.49
500 K, Crystal of unknown type, x1 = 0.4	53.2
500 K, Crystal of unknown type, x1 = 0.5	53.63
500 K, Crystal of unknown type, x1 = 0.6	52.36
500 K, Crystal of unknown type, x1 = 0.7	53.76
500 K, Crystal of unknown type, x1 = 0.75	51.47
500 K, Crystal of unknown type, x1 = 0.8	52.07
550 K, Crystal of unknown type, x1 = 0.1	52.81
550 K, Crystal of unknown type, x1 = 0.2	55.11
550 K, Crystal of unknown type, x1 = 0.3	53.24
550 K, Crystal of unknown type, x1 = 0.4	53.8
550 K, Crystal of unknown type, x1 = 0.5	54.24
550 K, Crystal of unknown type, x1 = 0.6	53.21
550 K, Crystal of unknown type, x1 = 0.7	54.51
550 K, Crystal of unknown type, x1 = 0.75	51.82
550 K, Crystal of unknown type, x1 = 0.8	52.47
600 K, Crystal of unknown type, x1 = 0.1	53.61
600 K, Crystal of unknown type, x1 = 0.2	55.86
600 K, Crystal of unknown type, x1 = 0.3	53.99
600 K, Crystal of unknown type, x1 = 0.4	54.4
600 K, Crystal of unknown type, x1 = 0.5	54.86
600 K, Crystal of unknown type, x1 = 0.6	54.06
600 K, Crystal of unknown type, x1 = 0.7	55.26
600 K, Crystal of unknown type, x1 = 0.75	52.17
600 K, Crystal of unknown type, x1 = 0.8	52.87
635 K, Crystal of unknown type, x1 = 0.8	53.15
635 K, Crystal, x1 = 0.8	52.52
650 K, Crystal of unknown type, x1 = 0.1	54.41
650 K, Crystal of unknown type, x1 = 0.2	56.61
650 K, Crystal of unknown type, x1 = 0.3	54.74
650 K, Crystal of unknown type, x1 = 0.4	55
650 K, Crystal of unknown type, x1 = 0.5	55.48
650 K, Crystal of unknown type, x1 = 0.6	54.91
650 K, Crystal of unknown type, x1 = 0.7	56.01
650 K, Crystal of unknown type, x1 = 0.75	52.52
650 K, Crystal, x1 = 0.8	52.97
683 K, Crystal of unknown type, x1 = 0.75	52.75
683 K, Crystal, x1 = 0.75	55.25
687 K, Crystal of unknown type, x1 = 0.7	56.56
687 K, Crystal, x1 = 0.7	53.53
700 K, Crystal of unknown type, x1 = 0.1	55.21
700 K, Crystal of unknown type, x1 = 0.2	57.36
700 K, Crystal of unknown type, x1 = 0.3	55.49
700 K, Crystal of unknown type, x1 = 0.4	55.6
700 K, Crystal of unknown type, x1 = 0.5	56.1
700 K, Crystal of unknown type, x1 = 0.6	55.76
700 K, Crystal, x1 = 0.7	54.17
700 K, Crystal, x1 = 0.75	56.4
700 K, Crystal, x1 = 0.8	54.47
733 K, Crystal of unknown type, x1 = 0.6	56.32
733 K, Crystal, x1 = 0.6	56.77
739 K, Crystal of unknown type, x1 = 0.1	55.83
739 K, Crystal, x1 = 0.1	55.59
750 K, Crystal of unknown type, x1 = 0.2	58.11
750 K, Crystal of unknown type, x1 = 0.3	56.24
750 K, Crystal of unknown type, x1 = 0.4	56.2
750 K, Crystal of unknown type, x1 = 0.5	56.71
750 K, Crystal, x1 = 0.1	55.9
750 K, Crystal, x1 = 0.6	57.39
750 K, Crystal, x1 = 0.7	56.62
750 K, Crystal, x1 = 0.75	59.8
750 K, Crystal, x1 = 0.8	55.97
753 K, Crystal of unknown type, x1 = 0.2	58.15
753 K, Crystal, x1 = 0.2	59.47
757 K, Crystal of unknown type, x1 = 0.5	56.8
757 K, Crystal, x1 = 0.5	57.77
769 K, Crystal of unknown type, x1 = 0.4	56.42
769 K, Crystal, x1 = 0.4	56.84
771 K, Crystal of unknown type, x1 = 0.3	56.56
771 K, Crystal, x1 = 0.3	57.44
800 K, Crystal, x1 = 0.1	57.3
800 K, Crystal, x1 = 0.2	61.35
800 K, Crystal, x1 = 0.3	58.49
800 K, Crystal, x1 = 0.4	58.24
800 K, Crystal, x1 = 0.5	59.38
800 K, Crystal, x1 = 0.6	59.19
800 K, Crystal, x1 = 0.7	59.07
800 K, Crystal, x1 = 0.75	63.2
800 K, Crystal, x1 = 0.8	57.47
850 K, Crystal, x1 = 0.1	58.7
850 K, Crystal, x1 = 0.2	63.35
850 K, Crystal, x1 = 0.3	60.29
850 K, Crystal, x1 = 0.4	60.49
850 K, Crystal, x1 = 0.5	61.26
850 K, Crystal, x1 = 0.6	60.99
850 K, Crystal, x1 = 0.7	61.52
850 K, Crystal, x1 = 0.75	66.6
850 K, Crystal, x1 = 0.8	58.97
900 K, Crystal, x1 = 0.1	60.1
900 K, Crystal, x1 = 0.2	65.35
900 K, Crystal, x1 = 0.3	62.09
900 K, Crystal, x1 = 0.4	62.74
900 K, Crystal, x1 = 0.5	63.13
900 K, Crystal, x1 = 0.6	62.79
900 K, Crystal, x1 = 0.7	63.97
900 K, Crystal, x1 = 0.75	70
900 K, Crystal, x1 = 0.8	60.47
930 K, Crystal, x1 = 0.5	64.25
930 K, Liquid, x1 = 0.5	81.03
950 K, Liquid, x1 = 0.5	82.5
1000 K, Liquid, x1 = 0.5	86.19
1050 K, Liquid, x1 = 0.5	89.88
1100 K, Liquid, x1 = 0.5	93.56
